What follows are molecules tested against T1, full-length ATR (Homo sapiens, UniProt Q13535) (assay: ATR Inhibition Assay (radioactive-phosphate incorporation)). Details: Ki(app); 5 nM full-length ATR, 10 μM ATP, 800 μM target peptide, 25° C.
T1 construct: in the presence of 5 nM full-length ATR
Assay type: biochemical
How it was run: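 After a 10-min pre-incubation of compound with 5 nM enzyme at 25 °C, ATP was added to start the reaction (final 10 μM [γ-33P]ATP, 800 μM peptide; Tris/HCl pH 7.5, MgCl2, DTT), which ran 24 h. Incorporated 33P was captured on phosphocellulose filters, and Ki(app) was fitted by non-linear regression.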

T1 sequence (Q13535 whole entry): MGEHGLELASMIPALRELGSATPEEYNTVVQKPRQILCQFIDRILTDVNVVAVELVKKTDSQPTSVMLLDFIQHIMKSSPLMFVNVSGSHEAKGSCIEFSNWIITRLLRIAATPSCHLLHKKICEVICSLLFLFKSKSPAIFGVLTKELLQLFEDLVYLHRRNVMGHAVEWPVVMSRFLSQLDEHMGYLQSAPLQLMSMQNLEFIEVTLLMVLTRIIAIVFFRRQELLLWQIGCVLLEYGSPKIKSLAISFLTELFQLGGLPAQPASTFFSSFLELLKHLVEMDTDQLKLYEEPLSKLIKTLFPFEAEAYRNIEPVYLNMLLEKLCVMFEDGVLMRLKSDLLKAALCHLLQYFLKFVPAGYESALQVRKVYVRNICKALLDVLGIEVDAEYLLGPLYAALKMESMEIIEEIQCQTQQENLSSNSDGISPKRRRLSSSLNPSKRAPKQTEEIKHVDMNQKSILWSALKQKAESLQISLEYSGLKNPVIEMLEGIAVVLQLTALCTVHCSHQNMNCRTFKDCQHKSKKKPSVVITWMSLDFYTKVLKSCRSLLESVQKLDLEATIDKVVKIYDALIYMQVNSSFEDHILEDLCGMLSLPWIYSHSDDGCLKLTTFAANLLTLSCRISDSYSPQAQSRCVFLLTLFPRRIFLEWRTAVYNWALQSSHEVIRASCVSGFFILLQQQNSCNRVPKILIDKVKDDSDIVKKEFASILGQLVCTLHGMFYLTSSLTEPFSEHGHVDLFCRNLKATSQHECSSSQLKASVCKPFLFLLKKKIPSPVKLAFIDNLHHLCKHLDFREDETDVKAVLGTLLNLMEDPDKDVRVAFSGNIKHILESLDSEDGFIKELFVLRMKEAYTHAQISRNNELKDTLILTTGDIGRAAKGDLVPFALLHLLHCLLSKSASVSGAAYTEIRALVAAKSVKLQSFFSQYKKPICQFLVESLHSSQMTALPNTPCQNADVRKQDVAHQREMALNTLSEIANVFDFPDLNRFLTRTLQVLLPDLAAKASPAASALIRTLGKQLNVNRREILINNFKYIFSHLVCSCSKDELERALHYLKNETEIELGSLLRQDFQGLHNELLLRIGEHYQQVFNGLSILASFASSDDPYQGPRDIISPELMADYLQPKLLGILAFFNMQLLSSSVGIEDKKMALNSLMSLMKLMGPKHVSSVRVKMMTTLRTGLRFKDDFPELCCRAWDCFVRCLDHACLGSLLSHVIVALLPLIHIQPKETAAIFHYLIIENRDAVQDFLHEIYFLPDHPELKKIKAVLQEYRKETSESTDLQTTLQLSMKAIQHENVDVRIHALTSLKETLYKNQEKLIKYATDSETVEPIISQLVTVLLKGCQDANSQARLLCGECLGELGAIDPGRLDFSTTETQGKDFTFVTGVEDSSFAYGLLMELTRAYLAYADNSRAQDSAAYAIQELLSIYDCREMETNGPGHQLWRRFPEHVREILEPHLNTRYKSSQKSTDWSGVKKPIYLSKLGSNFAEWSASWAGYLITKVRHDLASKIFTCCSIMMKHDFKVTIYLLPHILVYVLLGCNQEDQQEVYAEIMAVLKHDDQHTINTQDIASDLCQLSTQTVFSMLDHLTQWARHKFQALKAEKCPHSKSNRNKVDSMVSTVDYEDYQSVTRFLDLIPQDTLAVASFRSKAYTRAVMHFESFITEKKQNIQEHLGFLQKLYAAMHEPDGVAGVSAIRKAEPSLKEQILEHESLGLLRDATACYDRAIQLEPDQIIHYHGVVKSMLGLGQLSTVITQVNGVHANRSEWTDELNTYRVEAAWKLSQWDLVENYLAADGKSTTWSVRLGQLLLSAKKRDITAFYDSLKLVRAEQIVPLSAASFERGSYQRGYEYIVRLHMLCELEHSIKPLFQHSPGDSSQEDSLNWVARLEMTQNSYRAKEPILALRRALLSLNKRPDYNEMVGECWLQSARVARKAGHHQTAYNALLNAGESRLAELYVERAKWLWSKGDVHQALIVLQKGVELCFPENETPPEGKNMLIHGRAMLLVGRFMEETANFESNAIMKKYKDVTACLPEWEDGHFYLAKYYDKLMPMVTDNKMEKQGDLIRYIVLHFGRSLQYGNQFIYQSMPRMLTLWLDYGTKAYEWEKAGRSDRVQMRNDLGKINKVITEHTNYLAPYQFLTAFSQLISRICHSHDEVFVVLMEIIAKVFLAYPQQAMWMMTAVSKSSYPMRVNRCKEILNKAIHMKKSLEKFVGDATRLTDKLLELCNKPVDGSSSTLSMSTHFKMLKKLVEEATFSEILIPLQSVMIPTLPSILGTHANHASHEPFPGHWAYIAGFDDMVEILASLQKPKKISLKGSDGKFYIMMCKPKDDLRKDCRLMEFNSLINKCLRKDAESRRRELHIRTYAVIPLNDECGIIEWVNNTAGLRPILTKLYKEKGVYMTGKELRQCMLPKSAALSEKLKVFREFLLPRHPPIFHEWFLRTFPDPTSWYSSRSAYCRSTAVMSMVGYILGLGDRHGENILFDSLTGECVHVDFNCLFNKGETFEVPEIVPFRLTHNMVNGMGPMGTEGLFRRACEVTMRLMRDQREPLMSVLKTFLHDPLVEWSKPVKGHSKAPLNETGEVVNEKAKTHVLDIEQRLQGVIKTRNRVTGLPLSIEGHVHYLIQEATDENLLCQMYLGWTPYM

Compound | Ki
Cc1ccc2nc(-c3nc(N4CCN(c5ncccc5C(F)(F)F)CC4)cnc3N)[nH]c2c1 [Compound I-52, 3-(6-methyl-1H-benzo[d]imidazol-2-yl)-5-(4-(3-(trifluoromethyl)pyridin-2-yl)piperazin-1-yl)pyrazin-2-amine] | 1000 to 10000 nM
CCS(=O)(=O)N1CCN(c2cnc(N)c(-c3nnc(-c4c(F)cccc4F)o3)n2)CC1 [Compound I-289, 3-[5-(2,6-difluorophenyl)-1,3,4-oxadiazol-2-yl]-5-(4-ethylsulfonylpiperazin-1-yl)pyrazin-2-amine] | 100 to 1000 nM
Cc1ccc2nc(-c3nc(N4CCS(=O)(=O)CC4)cnc3N)[nH]c2c1 [Compound I-21, 5-(1,1-dioxo-1,4-thiazinan-4-yl)-3-(6-methyl-1H-benzimidazol-2-yl)pyrazin-2-amine] | 1000 to 10000 nM
CCOC(=O)N1CC=C(c2cnc(N)c(-c3nnc(-c4ccccc4)o3)n2)CC1 [Compound I-238, ethyl 4-(5-amino-6-(5-phenyl-1,3,4-oxadiazol-2-yl)pyrazin-2-yl)-5,6-dihydropyridine-1(2H)-carboxylate] | < 100 nM
Nc1ncc(C2=CCN(C(=O)C3CCCCC3)CC2)nc1-c1nc2ccccc2[nH]1 [Compound I-259, (4-(5-amino-6-(1H-benzo[d]imidazol-2-yl)pyrazin-2-yl)-5,6-dihydropyridin-1(2H)-yl)(cyclohexyl)methanone] | < 100 nM
CNCc1ccc(-c2nnc(-c3nc(N4CCC[C@H]4C)cnc3N)o2)cc1 [Compound I-362, 3-[5-[4-(Methylaminomethyl)phenyl]-1,3,4-oxadiazol-2-yl]-5-[(2R)-2-methylpyrrolidin-1-yl]pyrazin-2-amine] | 100 to 1000 nM
CC#CCOC(=O)N1CCN(c2cnc(N)c(C(=O)Nc3ccccn3)n2)CC1 [Compound I-252, but-2-ynyl 4-(5-amino-6-(pyridin-2-ylcarbamoyl)pyrazin-2-yl)piperazine-1-carboxylate] | 1000 to 10000 nM
Nc1ncc(C2=CCN(C(=O)Cc3ccccc3)CC2)nc1-c1nc2ccccc2[nH]1 [Compound I-213, 1-(4-(5-amino-6-(1H-benzo[d]imidazol-2-yl)pyrazin-2-yl)-5,6-dihydropyridin-1(2H)-yl)-2-phenylethanone] | 100 to 1000 nM
Cc1ccc2nc(-c3nc(N4CCC(C(=O)c5ccccc5)CC4)cnc3N)[nH]c2c1 [Compound I-63, (1-(5-amino-6-(6-methyl-1H-benzo[d]imidazol-2-yl)pyrazin-2-yl)piperidin-4-yl)(phenyl)methanone] | 100 to 1000 nM
CNC(=O)[C@H]1CCN(c2cnc(N)c(-c3nc4ccc(C)cc4[nH]3)n2)C1 [Compound I-70, (S)-1-(5-amino-6-(6-methyl-1H-benzo[d]imidazol-2-yl)pyrazin-2-yl)-N-methylpyrrolidine-3-carboxamide] | 1000 to 10000 nM
CCNC1CC=C(c2cnc(N)c(-c3nnc(-c4ccccc4)o3)n2)CC1 (centres unmarked) [Compound I-314, 5-(4-(Ethylamino)cyclohex-1-enyl)-3-(5-phenyl-1,3,4-oxadiazol-2-yl)pyrazin-2-amine] | 100 to 1000 nM
Nc1ncc(N2CCNCC2)nc1-c1nc2ccccc2[nH]1 [Compound I-40, 3-(1H-benzo[d]imidazol-2-yl)-5-(piperazin-1-yl)pyrazin-2-amine] | 1000 to 10000 nM
CCC(=O)N1CCC(c2cnc(N)c(-c3nnc(-c4ccc(CNC)cc4)o3)n2)CC1 [Compound I-353, 1-(4-(5-Amino-6-(5-(4-((methylamino)methyl)phenyl)-1,3,4-oxadiazol-2-yl)pyrazin-2-yl)piperidin-1-yl)propan-1-one] | 100 to 1000 nM
Nc1ncc(N2CC[C@H](NC(=O)c3ccccc3)C2)nc1-c1nc2ccccc2[nH]1 [Compound I-108, (S)-N-(1-(5-amino-6-(1H-benzo[d]imidazol-2-yl)pyrazin-2-yl)pyrrolidin-3-yl)benzamide] | 100 to 1000 nM
CCC(=O)N1CCN(c2cnc(N)c(-c3nnc(-c4ccc(CNC)cc4)o3)n2)C[C@@H]1C(C)C [Compound I-326, 1-[(2S)-4-[5-Amino-6-[5-[4-(methylaminomethyl)phenyl]-1,3,4-oxadiazol-2-yl]pyrazin-2-yl]-2-isopropyl-piperazin-1-yl]propan-1-one] | < 100 nM
Nc1ncc(N2CCN(C(=O)c3cccnc3)CC2)nc1-c1nnc(-c2ccccc2)o1 [Compound I-183, (4-(5-amino-6-(5-phenyl-1,3,4-oxadiazol-2-yl)pyrazin-2-yl)piperazin-1-yl)(pyridin-3-yl)methanone] | 100 to 1000 nM

The next lines start with the values.

Ki | Compound
100 to 1000 nM | Nc1ncc(N2CCN(S(=O)(=O)c3cccs3)CC2)nc1C(=O)Nc1ccccn1 [Compound I-116, 3-amino-N-(pyridin-2-yl)-6-(4-(thiophen-2-ylsulfonyl)piperazin-1-yl)pyrazine-2-carboxamide]
< 100 nM | Nc1ncc(N2C[C@@H]3CCC(O)[C@@H]3C2)nc1-c1nnc(-c2ccccc2)o1 (stereo in doubt) [Compound I-318, (3aR,6aS)-2-[5-Amino-6-(5-phenyl-1,3,4-oxadiazol-2-yl)pyrazin-2-yl]-3,3a,4,5,6,6a-hexahydro-1H-cyclopenta[c]pyrrol-6-ol]
1000 to 10000 nM | COC1CCN(c2cnc(N)c(-c3nc4ccc(C)cc4[nH]3)n2)CC1 [Compound I-12, 5-(4-methoxypiperidin-1-yl)-3-(6-methyl-1H-benzo[d]imidazol-2-yl)pyrazin-2-amine]
100 to 1000 nM | NCCS(=O)(=O)N1CC=C(c2cnc(N)c(-c3nc4ccccc4[nH]3)n2)CC1 [Compound I-313, 5-(1-(2-Aminoethylsulfonyl)-1,2,3,6-tetrahydropyridin-4-yl)-3-(1H-benzo[d]imidazol-2-yl)pyrazin-2-amine]
100 to 1000 nM | Nc1ncc(N2CCN(C(=O)N3CCCCC3)CC2)nc1-c1nnc(-c2ccccc2)o1 [Compound I-231, (4-(5-amino-6-(5-phenyl-1,3,4-oxadiazol-2-yl)pyrazin-2-yl)piperazin-1-yl)(piperidin-1-yl)methanone]
< 100 nM | CN(C)S(=O)(=O)N1CC=C(c2cnc(N)c(-c3nnc(-c4ccccc4)o3)n2)CC1 [Compound I-84, 4-(5-amino-6-(5-phenyl-1,3,4-oxadiazol-2-yl)pyrazin-2-yl)-N,N-dimethyl-5,6-dihydropyridine-1(2H)-sulfonamide]
100 to 1000 nM | CCC(=O)N1CC=C(c2cnc(N)c(-c3nnc(-c4ccc(CNC)cc4)o3)n2)CC1 [Compound I-335, 1-[4-[5-Amino-6-[5-[4-(methylaminomethyl)phenyl]-1,3,4-oxadiazol-2-yl]pyrazin-2-yl]-3,6-dihydro-2H-pyridin-1-yl]propan-1-one]
1000 to 10000 nM | CCC(=O)N1CCN(c2cnc(N)c(-c3nnc(-c4ccc(CNC)cc4)o3)n2)CC1(C)C [Compound I-329, 1-[4-[5-Amino-6-[5-[4-(methylaminomethyl)phenyl]-1,3,4-oxadiazol-2-yl]pyrazin-2-yl]-2,2-dimethyl-piperazin-1-yl]propan-1-one]
1000 to 10000 nM | CCS(=O)(=O)N1CC2CN(c3cnc(N)c(-c4nnc(-c5ccc(CNC)cc5)o4)n3)CC2C1 (centres unmarked) [Compound I-332, 5-(2-Ethylsulfonyl-1,3,3a,4,6,6a-hexahydropyrrolo[3,4-c]pyrrol-5-yl)-3-[5-[4-(methylaminomethyl)phenyl]-1,3,4-oxadiazol-2-yl]pyrazin-2-amine]
< 100 nM | Nc1ncc(C2=CCN(S(=O)(=O)c3ccccc3)CC2)nc1-c1nnc(-c2ccccc2)o1 [Compound I-102, 3-(5-phenyl-1,3,4-oxadiazol-2-yl)-5-(1-(phenylsulfonyl)-1,2,3,6-tetrahydropyridin-4-yl)pyrazin-2-amine]
